Experimental data as given in ChEMBL document CHEMBL3217733, “Synthesis of precursors and macrocycle analogs of aerucyclamides as anti-trypanosomal agents” (Medchemcomm, 2012).
One block for each compound: values may come before it.

Columns and labels:
[1] = test system: Trypanosoma brucei brucei; assay: Antitrypanosomal activity against Trypanosoma brucei brucei strain 427 assessed as growth inhibition at 25 uM; format: functional; details: read-out: GI
J774 = assay: Cytotoxicity against […] mouse J774 cells after 24 hrs by WST1 assay; format: cell-based; details: J774, 24 h
[2] = test system: Trypanosoma brucei brucei; assay: Antitrypanosomal activity against infective form of Trypanosoma brucei brucei strain 427 assessed as growth inhibition; format: functional, organism-based
[3] = Selectivity index, ratio of EC50 for mouse J774 cells to EC50 for infective form of Trypanosoma brucei brucei strain 427; format: toxicity, cell-based; details: read-out: Ratio EC50

Structure (SMILES): CC[C@H](C)[C@@H]1NC(=O)c2csc(n2)[C@H]([C@@H](C)CC)NC(=O)c2csc(n2)CNC(=O)c2nc1oc2C [MACROCYCLE]
inhibition of growth at 25 µM [1]: 41.7%

Structure (SMILES): CC[C@H](C)[C@H](NC(=O)c1csc([C@@H](NC(=O)OC(C)(C)C)[C@@H](C)CC)n1)c1nc(C(=O)OC)co1
inhibition of growth at 25 µM [1]: 41.1%

EC50 [2]: 11.4 µM
Structure (SMILES): CC[C@H](C)[C@@H]1NC(=O)c2csc(n2)[C@H]([C@@H](C)CC)NC(=O)c2csc(n2)CNC(=O)c2coc1n2
EC50 (J774): 48.8 µM | inhibition of growth at 25 µM [1]: 100% | selectivity ratio [3]: 4.3

Structure (SMILES): CC[C@H](C)[C@H](NC(=O)c1csc([C@@H](NC(=O)c2csc(CNC(=O)OC(C)(C)C)n2)[C@@H](C)CC)n1)c1nc(C(=O)OC)co1
inhibition of growth at 25 µM [1]: 20.9%

EC50 [2]: 6 µM
Structure (SMILES): CC[C@H](C)[C@H](NC(=O)c1csc([C@@H](NC(=O)c2csc(CNC(=O)OC(C)(C)C)n2)[C@@H](C)CC)n1)c1nc(C(=O)OC)c(C)o1
EC50 (J774): 915 µM | inhibition of growth at 25 µM [1]: 79.1% | selectivity ratio [3]: 150

Structure (SMILES): CC[C@H](C)[C@@H]1NC(=O)c2coc(n2)[C@H]([C@@H](C)CC)NC(=O)c2csc(n2)CNC(=O)c2coc1n2
inhibition of growth at 25 µM [1]: 16.2%

Structure (SMILES): CC[C@H](C)[C@@H]1NC(=O)c2coc(n2)[C@H]([C@@H](C)CC)NC(=O)c2coc(n2)[C@H]([C@@H](C)CC)NC(=O)c2coc1n2
inhibition of growth at 25 µM [1]: 13.5%

Structure (SMILES): CCOC(=O)c1csc(CNC(=O)OC(C)(C)C)n1
inhibition of growth at 25 µM [1]: 26.4%

Structure (SMILES): CC[C@H](C)[C@H](NC(=O)c1csc(CNC(=O)OC(C)(C)C)n1)c1nc(C(=O)OC)cs1
inhibition of growth at 25 µM [1]: 11.5%

Structure (SMILES): CC[C@H](C)[C@H](NC(=O)c1csc(CNC(=O)OC(C)(C)C)n1)c1nc(C(=O)N[C@H](c2nc(C(=O)OC)co2)[C@@H](C)CC)co1
inhibition of growth at 25 µM [1]: 18.3%

EC50 [2]: 0.4 µM
Structure (SMILES): CN(C)c1ccc2nc3ccc(=[N+](C)C)cc-3sc2c1 [METHYLENE BLUE CATION]

Structure (SMILES): CC[C@H](C)[C@H](NC(=O)c1csc(CNC(=O)OC(C)(C)C)n1)c1nc(C(=O)OC)co1
inhibition of growth at 25 µM [1]: 8.1%
